Values quoted from earlier work, collected in patent US20240285563A1, “USE OF (S)-3-AMINO-4-(DIFLUOROMETHYLENYL) CYCLOPENT-1-ENE-1-CARBOXYLIC ACID IN THE TREATMENT OF RHEUMATOID ARTHRITIS” (Ovid Therapeutics Inc., priority 2023, published 2024).

How the values were obtained:
OAT = molecular target: T1, OAT (Homo sapiens, UniProt P04181)
T1 sequence (P04181 36-439 limits assumed): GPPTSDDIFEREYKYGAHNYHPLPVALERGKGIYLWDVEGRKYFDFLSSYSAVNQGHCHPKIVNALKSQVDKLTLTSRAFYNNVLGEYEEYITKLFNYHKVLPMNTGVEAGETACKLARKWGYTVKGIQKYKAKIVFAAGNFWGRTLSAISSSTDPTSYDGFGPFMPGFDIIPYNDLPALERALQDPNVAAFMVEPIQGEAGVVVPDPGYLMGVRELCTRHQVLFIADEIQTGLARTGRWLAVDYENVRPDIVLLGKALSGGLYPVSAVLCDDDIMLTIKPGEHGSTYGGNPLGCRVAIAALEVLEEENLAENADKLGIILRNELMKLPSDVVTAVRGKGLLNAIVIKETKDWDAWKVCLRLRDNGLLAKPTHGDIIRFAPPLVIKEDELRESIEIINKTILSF

[1] = molecular target: aspartate aminotransferase (Asp-AT)
[2] = molecular target: alanine aminotransferase (Ala-AT)

Compound	Ki (OAT) [µM]	times more efficient an inactivator of OAT than CPP-115 (OAT; ratio of kinact/KI versus CPP-115) [times]	IC50 ([1]; very weak reversible inhibitor) [µM]	IC50 ([2]; very weak reversible inhibitor) [µM]	inactivation or inhibition of off-target enzyme [1]	inactivation or inhibition of off-target enzyme [2]
N[C@H]1C=C(C(=O)O)CC1=C(F)F [OV329, (S)-3-amino-4-(difluoromethylenyl)cyclopent-1-ene-1-carboxylic acid]	3.3	9.0	> 4000	> 4000	–	–
N[C@H]1C[C@@H](C(=O)O)CC1=C(F)F [CPP-115, (1S,3S)-3-amino+difluoromethylenyl-1-cyclopentanoic acid, reference compound]	116	–	–	–	not to inactivate or inhibit	not to inactivate or inhibit
